≈ marks a conversion by molar mass, not a printed value.
Legend:
[1] = tested on: Plasmodium falciparum; assay: microbe, parasite or virus in culture; conditions: 3D7
Description: Antiplasmodial activity against Plasmodium falciparum 3D7

[2] = Cytotoxicity against african green monkey Vero cells assessed as cell viability measured after 48 hrs by MTT assay; assay type: toxicity, cell-based, Chlorocebus sabaeus; conditions: chlorocebus sabaeus, time 48 hrs
[3] = Cytotoxicity against human MRC5 cells assessed as inhibition of cell growth incubated for 72 hrs by MTT assay; assay type: toxicity, cell-based
[4] = tested on: Plasmodium falciparum; assay: microbe, parasite or virus in culture; conditions: 3D7, 48 h
[5] = tested on: Plasmodium falciparum; assay: Antiplasmodial activity against Plasmodium falciparum K1; assay type: functional, organism-based
[6] = tested on: Plasmodium falciparum; assay: microbe, parasite or virus in culture; conditions: 3D7, 72 h
[7] = tested on: Plasmodium falciparum; assay: Antimalarial activity against CQ-resistant Plasmodium falciparum Dd2; assay type: functional, organism-based
[8] = tested on: HepG2; assay: Cytotoxicity against human HepG2 cells assessed as reduction in cell viability measured for 48 hrs by SRB assay; assay type: functional
[9] = tested on: HepG2; assay: Cytotoxicity against human HepG2 cells assessed as reduction in cell viability measured for 48 hrs by MTT assay; assay type: functional
[10] = tested on: Plasmodium falciparum; assay: Antiplasmodial activity against multidrug resistant Plasmodium falciparum K1 assessed as reduction in parasite growth by [3H]-hypoxanthine incorporation assay; assay type: functional, organism-based
[11] = tested on: Plasmodium falciparum; assay: Antiplasmodial activity against Plasmodium falciparum Dd2 assessed as reduction in parasite growth measured after 72 hrs by SYBR Green 1 staining based assay; assay type: functional, organism-based; conditions: Dd2, 72 h
[12] = tested on: Plasmodium falciparum; assay: Antimalarial activity against Plasmodium falciparum 3D7 assessed as reduction in malarial growth measured after 48 hrs by SYBR green dye based analysis; assay type: functional, organism-based; conditions: 3D7, 48 h
[13] = tested on: Plasmodium falciparum; assay: Antimalarial activity against Plasmodium falciparum RKL9; assay type: functional, organism-based

O=C(N/N=C/c1cn(-c2ccccc2)nn1)c1ccncc1
IC50 [1]: 23.1 µM

O=C(N/N=C/c1cn(-c2ccc(Cl)cc2)nn1)c1ccncc1
IC50 [1]: 14.5 µM

COc1ccc(-n2cc(/C=N/NC(=O)c3ccncc3)nn2)cc1
IC50 [1]: 23.2 µM

CC(C)=CCC1=C(OCc2cn(Cc3ccccn3)nn2)C(=O)c2ccccc2C1=O
CC50 at 48 h [2]: 658 µM

CC(C)=CCC1=C(OCc2cn(-c3cccnc3)nn2)C(=O)c2ccccc2C1=O
CC50 at 48 h [2]: 1030 µM

CCc1nnc2ccc(S(=O)(=O)N(Cc3cccc(F)c3)c3ccc(OC)cc3)cn12
IC50 at 72 h [3]: 18.2 µM

Cc1nn(-c2ccccc2)c(-n2cncn2)c1-c1cc(-c2ccc(F)cc2)nc2nc3ccccc3n12
IC50 [4]: 0.04 µg/mL (≈ 0.0822 µM)

Cc1cc(C)cc(N(Cc2cc(C)ccc2C)S(=O)(=O)c2cccn3c(C)nnc23)c1
IC50 at 72 h [3]: 48.5 µM | IC50 [5]: 11.5 µM

Cc1cc(Nc2ccc(S(=O)(=O)Nc3ccc(F)cc3)cc2)n2nc(C(F)(F)F)nc2n1
IC50 [6]: 0.08 µM

Cc1ccc(NS(=O)(=O)c2ccc(Nc3cc(C)nc4nc(C(F)(F)F)nn34)cc2)cc1
IC50 [6]: 0.03 µM

COc1ccc2nc(/C=C/c3ccncc3)cc(NCCN(C)C)c2c1
IC50 [7]: 0.03 µM

Cc1ccccc1N(C)C(=O)C(c1cccnc1)N(Cc1cc(C(F)(F)F)ccc1F)C1CC1 (stereo not given)
CC50 [8]: > 30 µM

CCc1ccccc1N(C)C(=O)C(c1cncnc1)N(Cc1cccc(C(F)(F)F)c1)C1CC1 (stereo not given)
CC50 [9]: > 30 µM | EC50 [10]: 0.57 µM

Cc1ccccc1-n1nnnc1C(c1cncnc1)N(Cc1cc(F)cc(C(F)(F)F)c1)C1CC1 (stereo not given)
EC50 [11]: 1.2 µM | CC50 [8]: 36 µM

O=C(C(c1cccnc1)N(Cc1cccc(C(F)(F)F)c1)C1CC1)N1CCCCC1 (stereo not given)
CC50 [8]: > 20 µM

CCCN(C(c1cncnc1)c1nnnn1-c1ccccc1C)C1(c2cccc(C(F)(F)F)c2)CC1 (stereo not given)
CC50 [8]: 13 µM

CN(C(=O)C(c1cncnc1)N(Cc1cccc(C(F)(F)F)c1)C1CC1)c1ccccc1 (stereo not given)
CC50 [9]: > 30 µM | EC50 [10]: 2 µM

CCCN(C(C(=O)N(C)c1ccccc1C)c1cccnc1)C1(c2cccc(C(F)(F)F)c2)CC1 (stereo not given)
CC50 [8]: > 15 µM

Cc1ccccc1N(C)C(=O)C(c1cccnc1)N(Cc1cccc(OC(F)(F)F)c1)C1CC1 (stereo not given)
CC50 [8]: > 30 µM

Cc1ccccc1N(C)C(=O)C(c1cccnc1)N(Cc1cccc(C(F)(F)F)c1)C1CC1 (stereo not given)
CC50 [8]: > 20 µM

FC(F)(F)c1cccc(CN(C2CC2)C(c2cccnc2)c2nnnn2C2CC2)c1 (stereo not given)
EC50 [11]: 3 µM

Cc1ccccc1N(C)C(=O)C(c1cccnc1)N(Cc1cccc(SC(F)(F)F)c1)C1CC1 (stereo not given)
CC50 [8]: > 30 µM

Cc1ccccc1N(C)C(=O)C(c1cncnc1)N(Cc1cccc(OC(F)(F)F)c1)C1CC1 (stereo not given)
CC50 [9]: > 30 µM | EC50 [10]: 0.59 µM

Cc1ccccc1N(C)C(=O)C(c1cncnc1)N(Cc1cccc(SC(F)(F)F)c1)C1CC1 (stereo not given)
CC50 [9]: > 30 µM | EC50 [10]: 1 µM

CCc1ccccc1N(C)C(=O)C(c1cccnc1)N(Cc1cccc(C(F)(F)F)c1)C1CC1 (stereo not given)
CC50 [8]: > 30 µM

CC(C)CC(CN1CCN(c2ncccn2)CC1)Nc1ccnc2cc(Cl)ccc12 (stereo not given)
IC50 [6]: 0.46 µM | IC50 [5]: 0.352 µM

COc1ccc2nc(/C=C/c3ccncc3)cc(N3CCCC3)c2c1
IC50 [7]: 0.36 µM

Clc1ccc2c(NCCN3CCN(c4ncccn4)CC3)ccnc2c1
IC50 [6]: 0.108 µM | IC50 [5]: 0.277 µM

COc1ccc2nc(/C=C/c3ccncc3)cc(NC3CCCCC3)c2c1
IC50 [7]: 0.27 µM

Cc1cc(C)nc(NS(=O)(=O)c2ccc(-n3cc(COc4cc5oc(=O)cc(C)c5cc4Cl)nn3)cc2)n1
IC50 [12]: 8.96 µM

Cc1nn(-c2ccccc2)c(-n2cncn2)c1-c1cc(-c2cc[nH]c2)nc2nc3ccccc3n12
IC50 [4]: 0.09 µg/mL (≈ 0.197 µM)

COc1ccc2cc3[n+](cc2c1OCc1cn(-c2ccc(S(=O)(=O)N4CCN(c5ccccn5)CC4)cc2)nn1)CCc1cc2c(cc1-3)OCO2.[Cl-]
IC50 [1]: 1 µg/mL

Cc1cc(C)nc(NS(=O)(=O)c2ccc(-n3cc(COc4ccccc4)nn3)cc2)n1
IC50 [1]: > 50 µg/mL

Cc1ccc(-c2cc(-c3c(C)nn(-c4ccccc4)c3-n3ccnc3)n3c(n2)nc2ccccc23)cc1
IC50 [4]: 1.84 µg/mL (≈ 3.82 µM)

COc1ccc2cc3[n+](cc2c1OCc1cn(-c2ccc(S(=O)(=O)Nc4nc(C)cc(C)n4)cc2)nn1)CCc1cc2c(cc1-3)OCO2.[Cl-]
IC50 [12]: 4 µg/mL

Cc1nn(-c2ccccc2)c(-n2ccnc2)c1-c1cc(-c2cccs2)nc2nc3ccccc3n12
IC50 [4]: 1.75 µg/mL (≈ 3.7 µM)

O=C(N/N=C/c1cnn(-c2ccccc2)n1)c1ccncc1
IC50 [1]: 20.2 µM

Cc1nn(-c2ccccc2)c(-n2ccnc2)c1-c1cc(-c2ccc(F)cc2)nc2nc3ccccc3n12
IC50 [4]: 0.03 µg/mL (≈ 0.0618 µM)

Cc1cc(C)nc(NS(=O)(=O)c2ccc(-n3cc(COc4ccc5c(C)cc(=O)oc5c4)nn3)cc2)n1
IC50 [12]: 20.5 µM

COc1ccc(-c2cc(-c3cc(Cl)sc3Cl)nc(N)n2)cc1OCc1ccccc1
IC50 [13]: 2.4 µg/mL (≈ 5.24 µM) | IC50 [4]: 5.4 µg/mL (≈ 11.8 µM)

Cc1cc(=O)oc2cc(OCc3cn(-c4ccc(S(=O)(=O)N5CCN(c6ccccn6)CC5)cc4)nn3)c(Cl)cc12
IC50 [1]: 59.1 µg/mL
